The assay deals with M. tuberculosis ΔargB. The assay is classed as cell-based, Mycobacterium tuberculosis.

Consider `O=c1cc(C(F)(F)F)[nH]c2c(C(F)(F)F)cccc12` [NMR711, 2,8-bis(trifluoromethyl)-1H-quinolin-4-one], for which the “Inhibitory activity on growth with arginine present” value (“Inhibitory activity on growth” below) is “inhibitory”.

For the molecule `O=c1cc[nH]c2c(C(F)(F)F)cccc12` [NMR446, 8-(trifluoromethyl)-1H-quinolin-4-one], the “Inhibitory activity on growth” value is recorded as “no inhibitory activity”.

Consider `NC(N)=NOCC[C@H](N)C(=O)O` [L-canavanine, reference compound], for which the “Inhibitory activity on growth” value is on record as “no inhibitory activity”.

Values taken from article PMC8220418, “A fragment-based approach to assess the ligandability of ArgB, ArgC, ArgD and ArgF in the L-arginine biosynthetic pathway of Mycobacterium tuberculosis” (Computational and Structural Biotechnology Journal, 2021).
